According to a melting point compilation (Tetko et al.; mined from patent text by program, amines drawn as free bases though some values may be those of a salt):

Point of comparison: `CCOc1c(Cl)cc([N+](=O)[O-])c(OCC)c1[N+](=O)[O-]`, melting point 78 °C. Against it:
- COc1ccc(CC(SC)C(=O)OCc2ccccc2)cc1C(=O)NCc1ccc(C(F)(F)F)cc1 (configuration not stated) — not separable, 77 to 79 °C
- O=C(O)c1scc(Cl)c1C(=O)Nc1ccccc1 — higher, 208 to 210 °C
- CCOP(=O)(OCC)C(O)c1cccc([N+](=O)[O-])c1 (configuration not stated) — higher, 93 to 95 °C
- CC(=O)C(=Cc1ccc(S(C)(=O)=O)c(Br)c1)C(C)=O — higher, 135 to 139 °C
- COc1ccc(Cl)cc1C(=O)N(CCCC(=O)O)c1ccc(OC)c(-c2ccccc2)c1 — higher, 155 to 156 °C
- O=C(c1cccs1)c1cnn2c(-c3cccs3)ccnc12 — higher, 193 to 195 °C
- CC1(C)C(=O)C(C(=O)c2ccc(C(F)(F)F)nc2CBr)=C(Cl)C(C)(C)C1=O — higher, 94.5 to 95 °C
- CC(C)(C)c1ccc(-c2sc(N)c(C(=O)c3ccc(Cl)cc3)c2CN(C2CCCCC2)C2CCCCC2)cc1 — higher, 180 to 184 °C
- O=c1c2c(O)c(O)ccc2c2cc(O)c(O)cc2n1Cc1ccccc1 — higher, 224 to 225 °C
- CC(=NNC(=O)c1ccc(C(F)(F)F)cc1)c1ccncc1 — higher, 198 °C
- Cc1csc(C2=NOCCO2)c1Br — lower, 67 °C
- CN1c2ccc([N+](=O)[O-])cc2C(C)(C)C12C=Nc1cc(-c3ccc(N4CCCC4)cc3)c3ccccc3c1O2 (configuration not stated) — higher, 260 to 262 °C
- CCS(=O)(=O)N1CCNC1=O — higher, 114 to 116 °C
- Cc1c(Br)c[nH]c1C=O — higher, 140 to 143 °C
- CCCN(C)S(=O)(=O)c1cccc(-c2cc(-c3nc(-c4ccc(C(F)(F)F)cc4)cc(C(F)(F)F)n3)ccn2)c1 — higher, 144 °C
- CC(C)c1csc(/C=C/c2cccc(N)c2)n1 — lower, 62 to 63 °C
- COc1c(N2CCC(N)C(C)(C)C2)c(F)cc2c(=O)c(C(=O)O)cn(C3CC3)c12 (configuration not stated) — higher, 222 to 224 °C
- C[C@@H](n1cnc2cc(C=NNS(N)(=O)=O)ccc2c1=O)[C@](O)(Cn1cncn1)c1ccc(F)cc1F — higher, 202 to 206 °C
- COc1cccc(Sc2cccc(F)c2C#N)c1 — higher, 99 to 100 °C
- Cc1cccc(OCC2=NCCN2S(C)(=O)=O)c1C — higher, 142 to 143 °C
- CN1CCC(c2c[nH]c3ccc(NC(=O)c4ccoc4)nc23)CC1 — higher, 105 to 108 °C
- CCCCCCCOc1cc2c(cc1/C(C)=C/c1ccc(C(=O)O)cc1)C(C)(C)CCCS2(=O)=O — higher, 153 to 154 °C
- CC(=O)OC1CCc2oc3ccc(Br)cc3c(=O)c2C1 (configuration not stated) — higher, 178 °C
- CCc1c(C)[nH]c(=O)n(-c2cc(C(=O)OC(C)C)c(Cl)cc2F)c1=O — higher, 176 to 178 °C
- N#CC(O)C(=O)c1ccccc1 (configuration not stated) — higher, 100 to 105 °C
- Oc1ccc([C@@H]2C[C@H]2c2ccc(O)cc2)cc1 (relative stereo) — higher, 190 to 191 °C
- O=C1c2ccc(Br)cc2C(=O)N1c1ccc2c(c1)C=C2 — higher, 167 to 168 °C
- COc1cc(COc2cccc(S(=O)(=O)c3ccc(C)nc3Nc3c(C)cc(C)cc3C)c2)cc(OC)c1 — higher, 120 to 121 °C
- CC(=O)NCCCC(=O)NCCCC(=O)c1ccc(Cl)cc1CCC(=O)O — higher, 108 °C
- CCOC(=O)C1(c2ccccc2)CCN(C2CCC(C#N)(c3ccccn3)CC2)CC1 (configuration not stated) — higher, 157 °C
- O=C1Cc2ccc(F)cc2C(c2ccc(Cl)cc2)N1 (configuration not stated) — higher, 131 to 133 °C
- NC(=O)c1[nH]c2ccccc2c1-c1ccc(NC(=O)Nc2ccccc2F)cc1 — higher, 146 to 148 °C
- CC12CCC3(CC1CCC1C2CCC2(C)C(N)C(O)CC12)OCCO3 (configuration not stated) — higher, 254 to 258 °C
- COCCC(=O)c1cc2c(=O)n(NS(C)(=O)=O)c(=O)[nH]c2cc1C(F)(F)F — higher, 186 to 191 °C
- Cc1ccc(C(=O)NCCCn2ccnc2)c(Nc2ccc3cn[nH]c3c2)n1 — higher, 203 to 205 °C
- CCOc1nc2c(Cl)cccc2s1 — lower, 43 to 45 °C
- CCNc1nc2ccccc2n2c(CC)nnc12 — higher, 235 to 238 °C
- CC(=O)Nc1cccc(C(=O)CN2C=CSC2NC(C)=O)c1 (configuration not stated) — higher, 224 to 226 °C
- CCCc1nn(C)c2c(NCc3ccc(OC)c(Cl)c3)nc(CCC(=O)O)nc12 — higher, 178 °C
- CC(Cn1cncn1)c1ccc(Cl)cc1Cl (configuration not stated) — higher, 79.5 °C
- COc1cccc(C(=O)Nc2ccc(N3CCN(CC(N)=O)CC3)cc2)c1-c1ccc(C(C)C)cc1 — higher, 207 to 209 °C
- O=C(O)CCc1cn(Cc2ccc(OCc3csc(-c4ccccc4)n3)nc2)nc1-c1ccccc1 — higher, 107 to 108 °C
- CS(=O)(=O)c1ccc(-c2cc(-c3nc4ccccc4c(=O)n3-c3ccc(Cl)cc3)sc2N2CCOCC2)cc1 — higher, > 275 °C
- COc1cc(OC)cc(C(=O)NNC(=O)Nc2cccc3c2C(=O)c2c-3n[nH]c2-c2ccc(N3CCNCC3)cc2)c1 — higher, > 300 °C
- NC[C@@H]1C(=O)N[C@H]1SC(c1ccccc1)(c1ccccc1)c1ccccc1 (relative stereo) — higher, 139 °C
- CCC(=O)NCC1CC1c1cccc2nc(C)cn12 (configuration not stated) — higher, 88 to 90 °C
- COc1ccc(-c2cc3ccccc3[nH]2)cc1NC(=S)Nc1cc(Cl)cc(Cl)c1 — higher, 199 to 201 °C
- Cc1ccc(C(C)(CCCCC(=O)CCCCC(C)(C(=O)O)c2ccc(C)cc2)C(=O)O)cc1 (configuration not stated) — lower, 48 to 50 °C
- COc1cc2c(cc1[N+](=O)[O-])[nH]c(=O)c(=O)n2C — higher, 343 °C
- O=C(NCc1cccnc1)OCc1ccccc1 — lower, 73.6 to 77.1 °C
- NC(=O)CCCN(Cc1ccccc1)Cc1ccccc1 — lower, 76 to 77 °C
- CSc1ncc(Cc2cccnc2)c(=S)[nH]1 — higher, 211 to 213 °C
- CC(=O)NC1C(O)OC(CO)C(O)C1OC(C)C(=O)NC(C)C(=O)NC(CCC(=O)O)C(N)=O (configuration not stated) — higher, 150 to 151 °C
- CCC(=O)c1c(C#N)nn(-c2c(Cl)cc(C(F)(F)F)cc2Cl)c1N — higher, 167 to 169 °C
- O=C(O)c1ccc([N+](=O)[O-])cc1-c1ccccc1 — higher, 174 to 176 °C
- CN(C)C(=O)Cc1ccc2c(c1)sc1nc(=O)cc(-c3ccccc3)n12 — higher, 238 to 240 °C
- COc1ccc(C(=O)c2c(N)sc3c2CCCN3C(=O)OCc2ccccc2)cc1OC — higher, 177 to 178 °C
- C=CCCCn1c(=O)sc2c(=O)[nH]c(N)nc21 — higher, 240 to 243 °C
- CCCn1c(=O)c(C(=O)OCC)c(O)c2cnc(SC)nc21 — higher, 130 to 133 °C
- Cc1ccc(C)c(NC(=O)NCC2(c3ccccc3)CCCCC2)c1 — higher, 202 to 203 °C
- CCc1nc2c(C(N)=O)cccc2n1-c1ccc(CCNC(=O)NS(=O)(=O)c2ccc(C)cc2)cc1 — higher, 208 to 214 °C
- CCOC(=O)C1(O)c2ccccc2S(=O)(=O)N1Cc1ccc(Br)cc1 (configuration not stated) — higher, 152 to 153 °C
- CN(CCc1ccc2c(c1)OCO2)C(C)(C)CCC(C(N)=O)(c1ccccc1)c1ccccc1 — higher, 165 °C
- CC(C)c1ccc(N(Cc2ccc(N(C)C)cc2)C(=O)C2CCCc3cc(OCCN(C)C)ccc32)cc1 (configuration not stated) — higher, 133 °C
- Cc1ccccc1-c1ccc(C(=O)N2Cc3ccc(C(=O)NCc4ccc5c(c4)OCO5)n3Cc3ccccc32)cc1C — higher, 149 to 151 °C
- O=C(O)CCCCCCCn1nc(-c2ccccc2)c(-c2ccccc2)n1 — higher, 86 to 88 °C
- O=C(Nc1ccc(C(F)(F)F)cc1)N1CC2CCc3ccccc3C2=N1 (configuration not stated) — higher, 149 to 151 °C
- Cc1cccc(C)c1N1CC(C)N(c2cccc(C(F)(F)F)c2)C1=N (configuration not stated) — higher, 160 to 166 °C
- COC(=O)C1C=CCN2C(=O)C(C)(CCO)C(=O)N12 (configuration not stated) — higher, 97 to 99 °C
- CCS(=O)(=O)CCC(=O)NNC(=O)N1Cc2cc(Cl)ccc2Oc2ccccc21 — higher, 184 to 185 °C
- Fc1ccc(Oc2ccnc3cc(Cl)ccc23)cc1 — higher, 89 to 91 °C
- CN(Cc1ccc([N+](=O)[O-])cc1)C1CCN(c2ccc([N+](=O)[O-])cc2)CC1 — higher, 119 to 120 °C
- Cn1c(C(=O)NCCCn2ccnc2)cc2ccccc21 — higher, 125 to 129 °C
- CCCO[C@@H]1C[C@@H](C(=O)O)N(C(C)=O)C1 — higher, 148 to 153 °C
- CC1OC(c2ccccc2Cl)c2cc(Cl)ccc2NC1=O (configuration not stated) — higher, 214 to 215 °C
- COc1ccc(CN(C)CCCCc2ccc(NC(=O)c3cccc4c(=O)c5cccc(N)c5[nH]c34)cc2)cc1OC — higher, 250 °C
- CC1Cc2c(N3C(=O)c4ccccc4C3=O)ccc(Cl)c2O1 (configuration not stated) — higher, 197 to 198 °C
- CCN(CC)S(=O)(=O)c1cc(-c2csc(=Nc3ccc(Cl)cc3)n2C)ccc1Cl — higher, 198 °C
- CC(C)(O)c1cnn2c(-c3cccc(-c4ccncc4)c3F)cnc2n1 — higher, 221 to 223 °C
- O=C(c1cc(-c2ccccc2)ccn1)N(O)Cc1ccccc1 — higher, 160 to 165 °C
- Brc1ccc2ccc3ccccc3c2n1 — higher, 113 to 114 °C
- CCCCCCCCCCCCCCCCCCOCCSCCO — lower, 58 to 59 °C
- C#CC1(O)C(C)CC2C3CCC4=CC(=O)CCC4(C)C3CCC21C (configuration not stated) — higher, > 230 °C
- CCn1nc2c(n1)C(N1CCN(C)CC1)=Nc1cc(Cl)ccc1N2 — higher, 180 to 182 °C
- CC(C)(CON=Cc1ccccc1Cl)C(=O)O — not separable, 78 to 80 °C
- CC1C(=NO)CC2(O)C3Cc4ccc(O)c5c4C2(CCN3C)C1O5 (configuration not stated) — higher, 115 to 116 °C
- COc1ccc(CCNC(=O)c2ccc(S(=O)(=O)NC(=O)c3ccc(C(=O)NCCO)nc3)cc2)cc1OC — higher, 201 to 203 °C
- O=C(O)CCC(=O)C(=O)Nc1ccccc1 — higher, 192 to 193 °C
- CNc1nc2c(C)cccc2c2c1ccn2-c1ccccc1C — higher, 129 to 130 °C
- Cn1c(=O)c2c(ncn2CCN2CC=C(c3c[nH]c4ccccc34)CC2)n(C)c1=O — higher, 196 °C
- Cc1cc(C(=O)Nc2ccccc2O)cc(Cl)c1O — higher, 192 to 194 °C
- CCCc1ccc(S(=O)(=O)NCC2CCN(S(=O)(=O)c3ccc(CCC)cc3)CC2)cc1 — higher, 158 to 159 °C
- CC(=O)OCCSC(F)(F)C(O)(Cn1cncn1)c1ccc(F)cc1F (configuration not stated) — higher, 79 to 82 °C
- O=c1[nH]c(-c2ccccc2)cn1S(=O)(=O)c1ccc2c(c1)CCN2Cc1cccnc1 — higher, 244 to 245 °C
- O=C(CC(C(=O)O)c1ccccc1)Nc1cc(Cc2n[nH]c(=O)c3ccccc23)ccc1F (configuration not stated) — higher, 180 to 183 °C
- CC(=O)OCC1CCn2c(c(C3=C(c4ccccc4Cl)C(=O)OC3=O)c3ccccc32)C1 (configuration not stated) — higher, 168 to 171 °C
